Assay results taken from patent US6139864A, “Compositions for common colds” (Sudzucker Aktiengesellschaft, priority 1998, dated 2000).

Experiments:
[1] = Dissolution rate of sugar alcohols; type: physicochemical
[2] = Nephelometric determination of free Zn ions in the presence of polyols; type: physicochemical; conditions: 35° C., acetate buffer pH=6.0; for Percentage of free (uncomplexed) ions: of total amount, 26 mg Zn in 50 ml; for Zn ions free in solution: standardized to the same Zn ion concentration (26 mg in 50 ml)
Protocol: 10 ml of zinc gluconate solution (2 g of zinc gluconate and 250 ml of deionized water) are mixed with 10 ml of polyol solution (1.0 g of sugar or sugar alcohol dissolved in 25 ml of deionized water) and 2 ml of acetate buffer (pH=6.0) and thermostatted at 35° C. in a cuvette.
1 molar NaHCO3 solution is subsequently added dropwise in small amounts, and the turbidity is determined using a turbidity photometer.
Isomalt, sucrose, glucose, hard isomalt candies, the zinc gluconate which was used as a source of zinc and two commercial products are compared, the overall amount of Zn ions in each case corresponding to 26 mg in 50 ml of solution.

[3] = Godfrey et al. 1992; Zarembo et al. 1992; U.S. Pat. Nos. 5,409,905 and 5,002,970; cited from earlier work
[4] = system: Staphylococcus aureus; test: Growth of Staphylococcus aureus in CASO medium with added sugar alcohol, optical density OD578 versus control; type: cell-based; conditions: 16 h, read-out: growth reduced to
Protocol: Staphylococcus aureus was cultivated at 37° C. in CASO medium to which, in addition to the carbon source glucose (5% strength), isomalt (0.58 M) had been added. The growth of the bacteria cultures in a shaking flask was determined after 16 h by means of the optical density (OD578) and compared with a control (CASO medium without isomalt). It was observed that in all experiments the growth of the cultures which were grown in isomalt was inhibited by more than 50%.

[5] = system: colds; conditions: free zinc ions; Mossad et al. 1996, Godfrey et al. 1996; cited from earlier work
[6] = system: rhinoviruses; conditions: Merluzzi et al. 1989; cited from earlier work

Row | Compound | Percentage of free (uncomplexed) ions [2] | Zn ions free in solution [2] | further results
1 | OC[C@@H](O)[C@@H](O)[C@H](O)[C@H](O)CO[C@H]1O[C@H](CO)[C@@H](O)[C@H](O)[C@H]1O [1,1-GPM, 1-O-α-D-glucopyranosyl-D-mannitol] |  |  | dissolution rate compared with 1,6-GPS [1]: considerably lower dissolution rate than 1,6-GPS
2 | O=C[C@H](O)[C@@H](O)[C@H](O)[C@H](O)CO [Glucose] | 50% | 13.00 mg in 50 ml of solution | 
3 | OC[C@H]1O[C@@](CO)(O[C@H]2O[C@H](CO)[C@@H](O)[C@H](O)[C@H]2O)[C@@H](O)[C@@H]1O [Sucrose] | 48% | 12.40 mg in 50 ml of solution | 
4 | OC[C@@H](O)[C@@H](O)[C@H](O)[C@H](O)CO [mannitol] |  |  | zinc-complexing action [3]: zinc-complexing action
5 | OC[C@@H](O)[C@@H](O)[C@H](O)[C@@H](O)CO [sorbitol] |  |  | activity at 580000 µM [4]: ~75%; zinc-complexing action [3]: zinc-complexing action
6 | zinc gluconate [Zn gluconate] | 64% | 14.62 mg in 50 ml of solution | 
7 | zinc ions |  |  | duration and severity of the symptoms of colds [5]: markedly reduces both the duration and the severity of the symptoms of colds; antiviral effects [6]: antiviral effects are a direct function of the amount of free Zn^2+ ions
